The target of one assay is DGK α kinase (Homo sapiens (Human), UniProt P23743). The assay is described as follows: In vitro DGK inhibition assay: ADP Glo run by Reaction Biology Corp., DGKalpha. The note with it: 2 nM enzyme, 500 uM DLG, 10-dose duplicate. The assay is classed as biochemical. Here is the method:
(§1) DGK α and ζ kinases use ATP to phosphorylate the substrate 1,2-dilauroyl-sn-glycerol (DLG). ATP is converted to ADP as a result of this enzymatic reaction.
(§2) After the kinase reaction, an ATP-depletion reagent is added to terminate the kinase reaction and deplete any remaining ATP, leaving only ADP. Second, a detection reagent is added to simultaneously convert ADP to ATP and allow the newly synthesized ATP to be converted to light using a coupled luciferase/luciferin reaction.
(§3) DGK α and ζ kinase ADP Glo assays were ran by Reaction Biology Corp., 1 Great Valley Parkway, Suite 2, Malvern, 19355, PA, USA. Information provided by the service provider are the following: DGK α and ζ kinases were used at 2 nM final concentration. Reactions were carried out at 50 µM ATP. 500 uM of the substrate DLG (Dilauroyl-sn-glycerol) was used.

The next assay has as its target DGK ζ kinase (Homo sapiens (Human), UniProt Q13574). The assay is described as follows: In vitro DGK inhibition assay: ADP Glo run by Reaction Biology Corp., DGKzeta. The assay is classed as biochemical. The conditions noted are these: 2 nM enzyme, 500 uM DLG, 10-dose duplicate. The protocol: as §1, §2, §3
A general note: ADP-Glo turns the ADP formed in a reaction into a luminescent signal.

Our source for the IC50 values is patent US20250236617A1, “BICYCLIC TETRAHYDROTHIAZEPINE DERIVATIVES” (Hoffmann-La Roche Inc., priority 2022, published 2025).

DGK α kinase, sequence (P23743 whole entry): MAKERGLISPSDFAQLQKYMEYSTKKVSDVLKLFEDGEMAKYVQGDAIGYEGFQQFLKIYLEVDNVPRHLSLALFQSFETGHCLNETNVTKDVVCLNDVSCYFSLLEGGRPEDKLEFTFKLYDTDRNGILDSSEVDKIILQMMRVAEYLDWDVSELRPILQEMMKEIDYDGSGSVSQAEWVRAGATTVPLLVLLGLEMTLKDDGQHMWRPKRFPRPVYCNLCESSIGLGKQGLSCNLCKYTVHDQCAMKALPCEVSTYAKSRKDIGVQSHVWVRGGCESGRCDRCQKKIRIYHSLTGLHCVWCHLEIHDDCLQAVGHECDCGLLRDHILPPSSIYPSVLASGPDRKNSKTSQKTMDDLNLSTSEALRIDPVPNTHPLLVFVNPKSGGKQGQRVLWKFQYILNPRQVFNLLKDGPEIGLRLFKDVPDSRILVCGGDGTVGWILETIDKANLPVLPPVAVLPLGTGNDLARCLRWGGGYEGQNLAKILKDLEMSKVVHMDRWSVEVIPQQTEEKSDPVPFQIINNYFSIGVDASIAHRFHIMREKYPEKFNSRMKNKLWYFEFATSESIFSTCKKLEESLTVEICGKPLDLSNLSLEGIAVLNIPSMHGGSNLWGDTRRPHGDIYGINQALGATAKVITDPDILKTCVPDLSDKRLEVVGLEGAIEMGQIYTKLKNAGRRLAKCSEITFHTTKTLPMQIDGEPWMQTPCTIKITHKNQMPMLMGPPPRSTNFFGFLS
DGK ζ kinase, sequence (Q13574 whole entry): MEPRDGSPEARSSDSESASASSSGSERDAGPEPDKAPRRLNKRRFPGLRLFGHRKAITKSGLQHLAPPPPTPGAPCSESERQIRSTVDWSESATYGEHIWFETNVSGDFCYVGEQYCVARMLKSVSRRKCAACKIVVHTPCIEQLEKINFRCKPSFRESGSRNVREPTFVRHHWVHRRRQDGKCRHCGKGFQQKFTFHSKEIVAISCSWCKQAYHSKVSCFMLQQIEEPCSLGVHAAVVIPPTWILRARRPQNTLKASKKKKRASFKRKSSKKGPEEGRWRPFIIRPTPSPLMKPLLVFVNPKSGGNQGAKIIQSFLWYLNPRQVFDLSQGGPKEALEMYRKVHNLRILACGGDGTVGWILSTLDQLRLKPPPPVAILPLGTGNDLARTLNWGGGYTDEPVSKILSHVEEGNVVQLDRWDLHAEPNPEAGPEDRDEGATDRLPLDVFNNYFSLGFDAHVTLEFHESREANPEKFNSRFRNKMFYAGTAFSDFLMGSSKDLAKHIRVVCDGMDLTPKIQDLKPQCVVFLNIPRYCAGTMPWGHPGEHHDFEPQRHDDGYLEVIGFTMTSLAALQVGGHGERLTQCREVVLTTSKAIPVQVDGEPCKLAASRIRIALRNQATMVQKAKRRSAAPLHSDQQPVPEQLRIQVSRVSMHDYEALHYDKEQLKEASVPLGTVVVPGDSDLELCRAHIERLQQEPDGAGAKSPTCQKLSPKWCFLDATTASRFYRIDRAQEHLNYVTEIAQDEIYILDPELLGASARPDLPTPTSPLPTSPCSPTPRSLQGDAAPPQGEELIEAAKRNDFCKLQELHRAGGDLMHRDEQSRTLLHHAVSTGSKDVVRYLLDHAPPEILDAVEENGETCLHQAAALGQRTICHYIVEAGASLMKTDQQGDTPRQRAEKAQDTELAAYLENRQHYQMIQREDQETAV

`CC(C)(C#N)c1cncc(-c2cc3c(cc2F)S(=O)(=O)C[C@H](N)C(=O)N3Cc2ccc(-c3noc(C(F)(F)F)n3)cc2)c1` [Example 23, 2-[5-[(3R)-3-amino-8-fluoro-1,1,4-triketo-5-[4-[5-(trifluoromethyl)-1,2,4-oxadiazol-3-yl]benzyl]-2,3-dihydro-1λ6,5-benzothiazepin-7-yl]-3-pyridyl]-2-methyl-propionitrile]: the values for the IC50 against DGK α kinase and on DGK ζ kinase were 372 nM and 310 nM, respectively.
